Measurements as given in patent publication US20110039920A1, “INHIBITORS OF IKK-BETA SERINE-THERONINE PROTEIN KINASE” (CHROMA THERAPEUTICS LTD., priority 2008, published 2011).

Columns and labels:
[1] = system: human whole blood TNFα release; assay: LPS-stimulation of human whole blood, TNF-α by ELISA; format: cell-based; details: inhibitor 2 hrs before LPS 100 ng/ml, 6 hrs, read-out: Inhibitor activity versus human whole blood TNFα release
Protocol: Whole blood was taken by venous puncture using heparinised vacutainers (Becton Dickinson) and diluted in an equal volume of RPMI1640 tissue culture media (Sigma). 100 μl was plated in V-bottomed 96 well tissue culture treated plates. 2 hrs after the addition of the inhibitor in 100 μl of RPMI1640 media, the blood was stimulated with LPS (E coli strain 005:B5, Sigma) at a final concentration of 100 ng/ml and incubated at 37° C. in 5% CO2 for 6 hrs. TNF-α levels were measured from cell-free supernatants by sandwich ELISA (R&D Systems #QTA00B)

[2] = system: THP-1 TNFα release; assay: LPS-stimulation of THP-1 cells, TNF-α by ELISA; format: cell-based; details: Homo sapiens, inhibitor 2 hrs before LPS 1 μg/ml, 6 hrs, read-out: Inhibitor activity versus THP-1 TNFα release
Protocol: THP-1 cells were plated in 100 μl at a density of 4×10^4 cells/well in V-bottomed 96 well tissue culture treated plates and incubated at 37° C. in 5% CO2 for 16 hrs. 2 hrs after the addition of the inhibitor in 100 μl of tissue culture media, the cells were stimulated with LPS (E coli strain 005:65, Sigma) at a final concentration of 1 μg/ml and incubated at 37° C. in 5% CO2 for 6 hrs. TNF-α levels were measured from cell-free supernatants by sandwich ELISA (R&D Systems #QTA00B)

- IC50 [1]: 0.5 to 1 µM
- IC50 [2]: 0.5 to 1 µM
SMILES: C[C@H](NCc1cccc(-c2cc(C(N)=O)c(NC(N)=O)s2)c1)C(=O)OC1CCCC1 [Example 11, Cyclopentyl N-{3-[4-carbamoyl-5-(carbamoylamino)-2-thienyl]benzyl}-L-alaninate]
